“And” between values parts separate entries of the source, which are not always exact repeats. Identical values can stand only once. Like-named read-outs stand apart in the source and are kept apart here. Marks after values point to notes of the source that are not given here.
Columns and labels:
[1] = molecular target: T1, eqBChE (equine butyrylcholinesterase) (Equus caballus, UniProt P81908); parameters: method as in Benfeito et al. [22]; settings: ref Benfeito et al. [22]; cited from earlier work
T1 construct: butyrylcholinesterase (eqBuChE, E.C. 3.1.1.8, from equine serum); purchased Sigma Aldrich; host or cells: equine serum
T1 sequence (P81908 whole entry): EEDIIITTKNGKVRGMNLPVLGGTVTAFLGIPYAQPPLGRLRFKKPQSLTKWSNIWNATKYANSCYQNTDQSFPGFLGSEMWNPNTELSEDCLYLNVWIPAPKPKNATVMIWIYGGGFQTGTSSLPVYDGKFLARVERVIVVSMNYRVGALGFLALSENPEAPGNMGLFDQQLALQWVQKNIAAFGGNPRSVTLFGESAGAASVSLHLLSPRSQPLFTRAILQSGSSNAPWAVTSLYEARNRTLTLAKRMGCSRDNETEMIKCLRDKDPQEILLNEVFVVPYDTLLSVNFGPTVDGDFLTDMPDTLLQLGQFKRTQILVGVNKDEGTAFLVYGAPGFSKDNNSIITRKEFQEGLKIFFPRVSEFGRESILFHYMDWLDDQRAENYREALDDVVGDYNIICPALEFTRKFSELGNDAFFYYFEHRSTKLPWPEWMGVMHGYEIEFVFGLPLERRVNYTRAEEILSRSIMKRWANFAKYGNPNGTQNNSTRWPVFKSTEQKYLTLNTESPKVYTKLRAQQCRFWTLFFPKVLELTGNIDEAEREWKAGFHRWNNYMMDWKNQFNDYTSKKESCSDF

[2] = system: differentiated SH-SY5Y cells; assay: Resazurin reduction assay (cytotoxicity); assay type: cell-based, human; settings: 24 h, concentrations up to 100 µM
Procedure: For cytotoxicity studies, differentiated SH-SY5Y cells were incubated with increasing concentrations of the test compounds (0.20–100 µM) for 24 h. Controls were treated with culture media containing 0.1% DMSO. Cell viability was estimated using two different methods: resazurin reduction assay and NR uptake assay. […]
days. The cultures were passaged once a week by trypsinization (0.25 % trypsin/1 mM EDTA).
To avoid phenotypic changes, the cells used for all experiments were taken between 19th and 28th passages. Cells were differentiated as described previously by Fernandes et al.. Briefly, SH-SY5Y cells were seeded onto 96-well plates at a density of 25,000 cells/cm2 in cell culture medium with trans-retinoic acid (RA) (final concentration of 10 µM) and incubated for 3 days at 37 °C in a humidified, 5% CO2−95% air atmosphere. The cell culture medium was then removed and replaced with medium supplemented with 12-O-tetradecanoylphorbol-13-acetate (TPA) (final concentration 80 nM), and cells were incubated for 3 days. Stock solutions of RA (10 mM) and TPA (80 µM) were prepared in DMSO.
1.5.3. Cytotoxicity assays
1.5.3.1. Resazurin reduction assay
Resazurin is a non-fluorescent, non-toxic water-soluble dye able to permeate through cell […]
highly fluorescent resorufin [8, 9]. Since the conversion of resazurin into resorufin occurs mostly in mitochondria, the amount of resorufin produced can be used as indicator of metabolic activity. The quantity of resorufin production is proportional to the number of viable cells in culture and can be quantified fluorometrically or colorimetrically.
Resazurin reduction assay was performed as previously described by Fernandes et al..
Briefly, after the 24 h incubation periods with the test compounds, the cell culture medium was removed and replaced with fresh culture medium with resazurin (10 μg/mL) prepared in cell culture medium. Differentiated SH-SY5Y cells were incubated for 2 h at 37 °C in a humidified 5% CO2−95% air atmosphere. Then, the fluorescence was read in a multiwell microplate reader (PowerWave XS from BioTek Instruments, Vermont, US), using an excitation wavelength of 540 nm and an emission wavelength of 590 nm. The results were expressed as the percentage of resazurin reduction relative to that of the control (non-treated) cells [resazurin reduction (% of […]
1.5.3.2. Neutral red uptake assay
The neutral red (NR) uptake assay is based on the ability of viable cells to incorporate the supravital dye NR and retain it inside the lysosomes. NR uptake assay was performed as previously described by Fernandes et al. Briefly, after the 24 h incubation periods with the test compounds, the cell culture medium was removed and NR solution ([…]) in fresh cell culture medium was added. Differentiated SH-SY5Y cells and Caco-2 cells were incubated for 2 h and 1 h, respectively, at 37 °C in a humidified, 5% CO2−95% air atmosphere. Then, the cell culture medium was removed and replaced by ethanol absolute/distilled water (1:1) with 5 % acetic acid to liberate the dye from the viable cells. The absorbance was measured at 540 nm in a […]

[3] = parameters: method as in Teixeira et al. [19],[20]; settings: ref Teixeira et al. [19],[20]; cited from earlier work
hMAO-A [4] = molecular target: T2, hMAO-A (Homo sapiens, UniProt P21397); assay: hMAO-A inhibition, kynuramine substrate; assay type: biochemical
T2 construct: purchased Sigma Aldrich; host or cells: insect cells (BTI-TN-5B1-4), baculovirus
T2 sequence (P21397 1-527): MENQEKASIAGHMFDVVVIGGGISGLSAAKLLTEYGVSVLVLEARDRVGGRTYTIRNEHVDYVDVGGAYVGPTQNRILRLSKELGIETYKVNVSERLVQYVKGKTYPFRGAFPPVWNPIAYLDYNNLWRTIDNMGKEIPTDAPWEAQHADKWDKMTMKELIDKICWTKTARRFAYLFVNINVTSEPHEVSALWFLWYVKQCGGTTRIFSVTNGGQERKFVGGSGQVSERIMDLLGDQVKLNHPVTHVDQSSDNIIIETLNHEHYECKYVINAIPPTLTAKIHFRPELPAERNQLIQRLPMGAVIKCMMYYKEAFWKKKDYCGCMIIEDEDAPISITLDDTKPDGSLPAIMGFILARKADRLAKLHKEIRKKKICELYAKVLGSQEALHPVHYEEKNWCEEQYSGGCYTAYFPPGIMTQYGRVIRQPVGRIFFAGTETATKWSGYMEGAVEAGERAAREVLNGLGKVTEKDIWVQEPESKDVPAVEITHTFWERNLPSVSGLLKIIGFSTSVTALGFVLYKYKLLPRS
Procedure: (§1) The inhibitory activity of lipophilic TPP^+ cations on hMAO-A and hMAO-B was studied using an experimental protocol described elsewhere [29, 40]
(§2) Evaluation of human monoamine oxidase (hMAO) inhibitory activity The human monoamine oxidase (hMAO) inhibitory outline was assessed in microsomal MAO isoforms prepared from insect cells (BTI-TN-5B1-4) infected with recombinant baculovirus containing cDNA inserts for hMAO-A or hMAO-B an d by measuring the enzymatic conversion rates of kynuramine into 4-hydroxyquinoline. The appropriate amounts of hMAO-A and hMAO-B were adjusted to obtain, in our experimental conditions, the same maximum
(§3) All assays were performed in sodium phosphate buffer solution 50 mM pH 7.4.
(§4) The compounds under study and reference inhibitors were pre-incubated at 37 °C for 10
(§5) concentration: 2×Km) in 96-well microplates (BRANDplates, pureGradeTM, BRAND GMBH, Wertheim, Germany). Then, the reaction was started with the addition of hMAO-A or hMAO-B.
(§6) Initial velocities were determined spectrophotometrically in a microplate reader (BioTek Synergy HT from BioTek Instruments, Winooski, VT, USA) at 37 °C by measuring the formation of 4-
(§7) The initial velocities, obtained from the linear phase of product formation, were normalized and plotted against the respective inhibitor concentration. IC50 values were obtained from dose-response curves and were expressed as mean ± standard deviation. IC50 values were determined from at least three independent experiments, each performed in triplicate.

[5] = Oxygen radical absorbance capacity (ORAC-FL) assay; settings: for ORAC-FL Index: relative Trolox equivalent ORAC value
[6] = Chromatographic hydrophobicity index by gradient RP-HPLC at pH 2.3
Procedure: Chromatographic hydrophobicity indexes (CHIs) at pH 2.3 were determined using an experimental protocol described elsewhere [45, 46] and included in the supplementary information.
Evaluation of the chromatographic hydrophobicity index
Chromatographic hydrophobicity indexes (CHIs) values were determined using the
retention times (tR) of samples and a mixture of reference compounds. The data was acquired on
a Shimadzu high-performance liquid chromatograph SPD-M20A system (Shimadzu, Kyoto,
Japan) with a Luna C18 (2) column (Phenomenex, CA, USA) 150×4.6 mm, 5 µm. In CHI
determinations at pH 2.3, mobile phase A was aqueous solution of acetic acid 1 % (v/v) (pH 2.3),
and mobile phase B was acetonitrile. The following gradient program was applied: 1 mL/min
Calibration plots were obtained using a mixture of the following compounds:
paracetamol, theophylline, caffeine, benzimidazole, colchicine, carbamazepine, indole,
propiophenone, butyrophenone, valerophenone, and heptanophenone (Table S1, Figure S2).
hydrophobicity index (CHI) values were calculated as previously described [13, 14].

hMAO-B [7] = molecular target: T3, hMAO-B (Homo sapiens, UniProt P27338); assay: biochemical; parameters: purchased Sigma Aldrich; host or cells: insect cells (BTI-TN-5B1-4), baculovirus
T3 sequence (P27338 1-520): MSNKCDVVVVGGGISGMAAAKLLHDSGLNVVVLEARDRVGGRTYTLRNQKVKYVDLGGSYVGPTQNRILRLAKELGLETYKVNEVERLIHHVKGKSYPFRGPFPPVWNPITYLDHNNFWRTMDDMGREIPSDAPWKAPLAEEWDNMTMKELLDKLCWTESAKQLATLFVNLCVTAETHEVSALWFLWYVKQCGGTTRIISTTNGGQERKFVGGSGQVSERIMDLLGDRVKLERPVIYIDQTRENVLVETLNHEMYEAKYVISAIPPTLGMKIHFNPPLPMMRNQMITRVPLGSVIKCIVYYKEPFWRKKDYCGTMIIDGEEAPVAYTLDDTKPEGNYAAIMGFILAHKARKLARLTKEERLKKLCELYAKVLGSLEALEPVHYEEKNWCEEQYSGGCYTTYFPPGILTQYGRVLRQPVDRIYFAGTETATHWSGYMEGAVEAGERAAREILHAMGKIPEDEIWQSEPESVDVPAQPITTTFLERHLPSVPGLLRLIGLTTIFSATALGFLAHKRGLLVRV
Procedure: as §1, §2, §3, §4, §5, §6, §7

[8] = system: differentiated SH-SY5Y cells; assay: Neutral red (NR) uptake assay (cytotoxicity); assay type: cell-based, human; settings: 24 h, increasing concentrations up to 100 µM
Procedure: To avoid phenotypic changes, the cells used for all experiments were taken between 19th and 28th passages. Cells were differentiated as described previously by Fernandes et al. [6]. Briefly, SH-SY5Y cells were seeded onto 96-well plates at a density of 25,000 cells/cm2 in cell culture medium with trans-retinoic acid (RA) (final concentration of 10 µM) and incubated for 3 days at
The neutral red (NR) uptake assay is based on the ability of viable cells to incorporate the supravital dye NR and retain it inside the lysosomes [11]. NR uptake assay was performed as previously described by Fernandes et al. [12] Briefly, after the 24 h incubation periods with the test compounds, the cell culture medium was removed and NR solution (50 mg/mL) in fresh cell culture medium was added. Differentiated SH-SY5Y cells and Caco-2 cells were incubated for 2
multiwell microplate reader (PowerWave XS from BioTek Instruments). The results were
expressed as the percentage of NR uptake relative to that of the control (non-treated) cells [NR
uptake (% of control)] ± standard error mean (SEM) of at least three independent experiments.
Stock solutions of the test compounds (10 µM) were prepared in DMSO and diluted in

[9] = molecular target: T1, eqBChE (equine butyrylcholinesterase); assay: biochemical
Procedure: (§8) The eeAChE and eqBChE inhibitory activities of the compounds under study were determined following the Ellman’s method [32, 33]
(§9) Substrate solutions (ATCI or BCTI) were prepared in deionized water (conductivity ˂ 0.1 µS.cm-
(§10) Evaluation of eel acetylcholinesterase and equine butyrylcholinesterase inhibitory
(§11) The eeAChE and eqBChE inhibitory activities of the compounds under study were evaluated following the Ellman’s method [1, 2]. Briefly, a mixture containing sodium phosphate buffer, enzyme (final concentration: eeAChE 0.05 U/mL and eeBChE 0.05 U/mL), DTNB (final concentration: 400 µM) and the test compounds/reference inhibitors were preincubated for 5 minutes at 30 °C in a 96-well microplate (BRANDplates, pureGradeTM, BRAND GMBH, Wertheim, Germany). In control experiments, sodium phosphate buffer was used instead of the
(§12) ºC in a microplate reader (BioTek Synergy HT from BioTek Instruments, Winooski, VT, USA).
(§13) The rates of the substrate enzymatic hydrolysis were determined, normalized and plotted against the respective inhibitor concentration. IC50 values were obtained from the dose-response curves
(§14) and were expressed as mean ± standard deviation. IC50 values were determined in at least three
(§15) independent experiments, each performed at least in triplicates.

[10] = molecular target: T4, eeAChE (electric eel acetylcholinesterase) (Electrophorus electricus, UniProt O42275); assay: eeAChE inhibition, Ellman's method; assay type: biochemical
T4 construct: Eel acetylcholinesterase (eeAChE, E.C. 3.1.1.7, from Electrophorus electricus); purchased Sigma Aldrich
T4 sequence (O42275 24-633): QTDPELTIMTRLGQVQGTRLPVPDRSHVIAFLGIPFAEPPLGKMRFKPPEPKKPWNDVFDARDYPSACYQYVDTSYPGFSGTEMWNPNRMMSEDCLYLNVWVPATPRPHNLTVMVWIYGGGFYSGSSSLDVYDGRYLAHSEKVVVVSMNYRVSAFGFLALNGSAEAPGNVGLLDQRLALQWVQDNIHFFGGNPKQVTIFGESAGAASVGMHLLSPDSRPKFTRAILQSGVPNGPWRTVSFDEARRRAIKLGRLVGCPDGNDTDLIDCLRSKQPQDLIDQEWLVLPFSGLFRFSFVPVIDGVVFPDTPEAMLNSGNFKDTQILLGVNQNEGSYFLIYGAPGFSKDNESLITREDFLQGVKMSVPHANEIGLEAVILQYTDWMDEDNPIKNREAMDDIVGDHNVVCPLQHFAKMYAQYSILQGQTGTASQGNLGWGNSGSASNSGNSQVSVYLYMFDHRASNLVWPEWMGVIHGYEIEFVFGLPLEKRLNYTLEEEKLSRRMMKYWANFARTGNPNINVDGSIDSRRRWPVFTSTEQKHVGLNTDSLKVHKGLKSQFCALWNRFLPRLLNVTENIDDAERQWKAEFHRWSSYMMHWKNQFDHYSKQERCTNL
Procedure: as §8, §9, §10, §11, §12, §13, §14, §15

[11] = parameters: method as in Camurri et al. [13]; settings: standard mixture for calibration; ref Camurri et al. [13]; cited from earlier work
[12] = system: differentiated SH-SY5Y cells; settings: at concentrations up to 50 µM; ref [58]; cited from earlier work
hMAO-A [13] = molecular target: T2, hMAO-A; parameters: method as in Chavarria et al. [29]; settings: read-out: IC50 hMAO-A; ref Chavarria et al. [29]; cited from earlier work
hMAO-B [14] = molecular target: T3, hMAO-B; settings: read-out: IC50 hMAO-B; ref Chavarria et al. [29]; cited from earlier work

## O=C(/C=C/c1ccc(O)c(O)c1)NCCCCCC[P+](c1ccccc1)(c1ccccc1)c1ccccc1 [AntiOXCIN2, reference compound]
[1]
  IC50: 0.124 ± 0.007 µM
  SI (1): eqBChE selectivity index = IC50(eeAChE)/IC50(eqBChE): 51 ^d
[2]
  effect on resazurin reduction: did not markedly affect
[3]
  Ep (redox potential): 166 mV and 166 ^a mV
hMAO-A [4]
  IC50: > 10 µM
  inhibition at 10 µM: < 50%
[5]
  ORAC-FL Index: 2.8 ± 0.1
[6]
  CHI: 37.9
hMAO-B [7]
  IC50: > 10 µM
  inhibition at 10 µM: < 50%
[8]
  effect on NR uptake: did not markedly affect

## O=C(/C=C/c1ccc(O)c(O)c1)NCCCCCCCC[P+](c1ccccc1)(c1ccccc1)c1ccccc1 [AntiOXCIN3, reference compound]
[2]
  effect on resazurin reduction: did not markedly affect
[3]
  Ep (redox potential): 164 mV and 164 ^a mV
hMAO-A [4]
  IC50: > 10 µM
  inhibition at 10 µM: < 50%
[5]
  ORAC-FL Index: 2.6 ± 0.1
[6]
  CHI: 41.4
hMAO-B [7]
  IC50: > 10 µM
  inhibition at 10 µM: < 50%
[9]
  SI (1): eqBChE selectivity index = IC50(eeAChE)/IC50(eqBChE): 16
[9]; read-out: IC50 eqBChE
  IC50: 0.325 ± 0.09 µM
[8]
  effect on NR uptake: did not markedly affect
[10]
  IC50: 5.08 ± 0.22 µM

## c1ccc2[nH]cnc2c1 [Benzimidazole]
[11]
  CHI0 pH 2.3: 6.30

## CCCC(=O)c1ccccc1 [Butyrophenone]
[11]
  CHI0 pH 2.3: 87.3

## Cn1c(=O)c2c(ncn2C)n(C)c1=O [Caffeine]
[11]
  CHI0 pH 2.3: 23.41

## NC(=O)N1c2ccccc2C=Cc2ccccc21 [Carbamazepine]
[11]
  CHI0 pH 2.3: 60.42

## COc1cc2c(c(OC)c1OC)-c1ccc(OC)c(=O)cc1[C@@H](NC(C)=O)CC2 [Colchicine]
[11]
  CHI0 pH 2.3: 43.9

## O=C(C=CC=Cc1ccc2c(c1)OCO2)N1CCCCC1 [Compound 1, 1-[5-(1,3-benzodioxol-5-yl)-1-oxo-2,4-pentadienyl]piperidine]
[5]; ORAC-FL
  ROO• radical scavenging: unable to scavenge ROO• radicals
[6]
  CHI: 73.4
[12]
  cytotoxic effects: did not exhibit cytotoxic effects
hMAO-A [13]
  IC50: > 10 µM
hMAO-B [14]
  IC50: 1.05 ± 0.08 µM

## CCCCCCC(=O)c1ccccc1 [Heptanophenone]
[11]
  CHI0 pH 2.3: 112.1

## c1ccc2[nH]ccc2c1 [Indole]
[11]
  CHI0 pH 2.3: 72.1

## CC(=O)Nc1ccc(O)cc1 [Paracetamol]
[11]
  CHI0 pH 2.3: 18.77

## CCC(=O)c1ccccc1 [Propiophenone]
[11]
  CHI0 pH 2.3: 77.4

## Cn1c(=O)c2[nH]cnc2n(C)c1=O [Theophyline]
[11]
  CHI0 pH 2.3: 17.9

## CCCCC(=O)c1ccccc1 [Valerophenone]
[11]
  CHI0 pH 2.3: 96.4

— publication PMC7926627, “Fine-Tuning the Biological Profile of Multitarget Mitochondriotropic Antioxidants for Neurodegenerative Diseases” (Antioxidants, 2021)
